Where two headings read alike, the source gives them in different places.
Test system: thromboxane B2 (TxB2) formation
Assay: TxB2 generation in clotted whole blood of anaesthetized rabbits after intravenous dosing (method of Patrono et al., RIA)
Assay type: in vivo, New Zealand white rabbits
Conditions: Oryctolagus cuniculus, read-out: Percent Inhibition (%) of TxB2 formation; for inhibition at 1 mg/kg: 1.0 mg/kg i.v.; for inhibition at 0.3 mg/kg: 0.3 mg/kg i.v.; for inhibition at 0.1 mg/kg: 0.1 mg/kg i.v.
Procedure: A number of in vivo tests in animals have also been described for evaluating potential anti-thrombotic drugs. For instance, the method of Patrono et al. is adapted to study the generation of TxB2 in whole blood samples removed from animals prior to and following drug treatment. Briefly, blood samples are taken into glass tubes and allowed to clot at 37° C. Serum is then separated by centrifugation and the samples stored at -40° C. until assayed for TxB2, when appropriate dilutions of ethanol deproteinized samples are thereafter analyzed by RIA. This technique is used in experiments with the test compounds to determine intravenous potency in anesthetized rabbits.
In this study, male New Zealand white rabbits (2.6-5.6 kg.) are anesthetized with sodium pentobarbitone (30 mg./kg., i.v.), followed by urethane (500 mg./kg., i.p.). After cannulation of the trachea, a carotid artery is catheterized for collection of the blood samples. The catheter is kept patent by slow infusion (0.2 ml./minutes) of sterile saline. Control carotid arterial blood samples are then taken at 30 minutes and at 5 minutes prior to administration of the test compound or vehicle (0.9% w./v. NaCl, 0.2 ml./kg.) via a marginal ear vein. Three groups of rabbits are employed in the test. The first group is given the test compound at 0.03 mg./kg., followed one hour later by a second dose at 0.1 mg./kg. Similarly, the second group is administered the test compound at 0.3 mg./kg., followed by a second dose (one hour later) at 1.0 mg./kg. The third group is treated with the vehicle alone, followed one hour later by a further vehicle injection. Carotid arterial blood samples are then taken at various time intervals after all doses. At each time point, a 1.0 ml. blood sample is taken into a glass tube, without anticoagulant, for TxB2 determination. For the latter determination, the blood sample is allowed to clot during a two-hour incubation period at 37° C. (which preliminary experiments had already shown to give a maximum TxB2 production) and the resulting serum obtained by centrifugation. The serum samples are then processed through the TxB2 -RIA after deproteinization with ethanol and dilution with Isogel Tris buffer.

Structure (SMILES) | inhibition at 1 mg/kg (2 min, 2 min) [%] | inhibition at 0.3 mg/kg (0.25 h, 15 min) [%] | inhibition at 1 mg/kg (0.25 h, 15 min) [%] | inhibition at 0.3 mg/kg (0.5 h, 30 min) [%] | inhibition at 1 mg/kg (0.75 h, 45 min) [%] | inhibition at 1 mg/kg (1.25 h, 75 min) [%] | inhibition at 0.3 mg/kg (2 min, 2 min) [%] | inhibition at 0.1 mg/kg (0.25 h, 15 min) [%] | inhibition at 0.1 mg/kg (0.5 h, 30 min) [%] | inhibition at 0.3 mg/kg (0.75 h, 45 min) [%] | inhibition at 0.3 mg/kg (1.25 h, 75 min) [%]
Cc1c(Cn2ccnc2)c2ccccc2n1/C=C/C(=O)O [Ex. 1, E-3-{1-[2-methyl-3-(1-imidazolyl-methyl)]indolyl}-acrylic acid] | 93 | 93 | 96 | 93 | 95 | 95 | – | – | – | – | –
Cc1c(Cc2cccnc2)c2ccccc2n1/C=C/C(=O)O [Ex. 2, E-3-{1-[2-methyl-3-(3-pyridylmethyl)]indolyl}-acrylic acid] | 97 | 98 | 94 | – | 97 | 95 | 95 | 81 | 82 | 93 | 90

From patent publication US4451472A, “Inhibition of thromboxane synthetase with 3-(heteroalkyl)-indolyl-acrylic acid derivatives” (Pfizer Inc., priority 1981, dated 1984)
